“Also recorded” adds a separate entry of the source. Read-outs that look alike come from different tables or passages of the source.
Tested on: atherosclerosis in New Zealand white rabbit on high fat diet
Settings: for atherosclerosis Grade: individual animals; for high density lipoprotein cholesterin (HDL-C) Increase / high density lipoprotein cholesterin (HDL-C) Increase (%) / high density lipoprotein cholesterin (HDL-C) Wk 0 / high density lipoprotein cholesterin (HDL-C) Wk 19 / ligh density lipoprotein cholesterin (LDL-C) Increase / ligh density lipoprotein cholesterin (LDL-C) Increase (%) / ligh density lipoprotein cholesterin (LDL-C) Wk0 / ligh density lipoprotein cholesterin (LDL-C) Wk 19 / total cholesterol (TC) Increase / total cholesterol (TC) Increase (%) / total cholesterol (TC) Wk0 / total cholesterol (TC) Wk 19 / total triglyceride (TG) Increase / total triglyceride (TG) Increase (%) / total triglyceride (TG) Wk 0 / total triglyceride (TG) Wk 19: serum
Method: New Zealand rabbits were adopted in this animal study and divided into 5 groups. They were high dose, medium dose and low dose of treatment, positive and vehicle control. The treatment groups were given APOAI via auricular vein once a week. […] Positive controls were given Liptor daily by p.o. with a dose of 0.45 mg/kg body weight. […] The study duration was 19 weeks. At the end of study, all animals were sacrificed. […] Lipid content was examined in liver and aorta. And liver index was also determined.
The body weight was between 1.8-2.0 kg. The animals were quarantined for 5-10 days with normal diet before study.
Animals were randomly divided into 5 groups including vehicle control, high dose, medium dose, low dose and positive control group. Ten to 14 rabbits were in one group. Each rabbit was fed with 30 gram of high fat diet followed by 120 gram of normal diet with free access to water.
The frequency of dosing was once a week. Dose was 80, 40, 20 mg/kg body weight respectively. Drug was given by intravenous injection via auricular vein with the volume of 5 mL.
5.1 body weight: body weight of each rabbit was determined once a week.
Resulted blood samples were kept still for 2 hours and then spin with 4,000 rpm for 10 min.
Abdomen cavity was opened. Whole blood was taken from heart. Heart was harvested along with 7 cm of aorta.
The aorta was dissected for 0.5 cm from aortic arch, split longitudinally and then kept in cryo-preservation tube for later lipid analysis. One piece of this sample was fixed in formalin for further pathological analysis.
The weight of liver was determined immediately. Two pieces of specimen were cut from hepatic lobe.
Resulted blood samples were kept still for 2 hours.
The aorta was dissected and opened for 7.5 cm from aortic arch longitudinally. Pictures were taken and atherosclerosis changing was analyzed.

human Apolipoprotein AI [APOAI]
Lipid content in aorta: HDL-C (High dose): 0.111 ± 0.057
Lipid content in aorta: LDL-C (High dose): 0.318 ± 0.05
Lipid content in aorta: TC (High dose): 0.29 ± 0.098
Lipid content in aorta: TG (High dose): 0.402 ± 0.101
Lipid content in liver: HDL-C (High dose): 0.825 ± 0.129
Lipid content in liver: LDL-C (High dose): 2.302 ± 0.054
Lipid content in liver: TC (High dose): 2.841 ± 0.298
Lipid content in liver: TG (High dose): 1.3 ± 0.171
TG content in liver vs vehicle control (High dose): significantly lower
Lipid content in aorta: HDL-C (Low dose): 0.092 ± 0.066
Lipid content in aorta: LDL-C (Low dose): 0.254 ± 0.078
Lipid content in aorta: TC (Low dose): 0.28 ± 0.047
Lipid content in aorta: TG (Low dose): 0.337 ± 0.055
Lipid content in liver: HDL-C (Low dose): 0.803 ± 0.236
Lipid content in liver: LDL-C (Low dose): 1.857 ± 0.559
Lipid content in liver: TC (Low dose): 2.95 ± 0.809
Lipid content in liver: TG (Low dose): 1.369 ± 0.251
Lipid content in aorta: HDL-C (Middle dose): 0.128 ± 0.064
Lipid content in aorta: LDL-C (Middle dose): 0.307 ± 0.043
Lipid content in aorta: TC (Middle dose): 0.332 ± 0.135
Lipid content in aorta: TG (Middle dose): 0.388 ± 0.124
Lipid content in liver: HDL-C (Middle dose): 0.815 ± 0.249
Lipid content in liver: LDL-C (Middle dose): 1.407 ± 0.418
Lipid content in liver: TC (Middle dose): 2.214 ± 0.515
Lipid content in liver: TG (Middle dose): 1.081 ± 0.31
liver and aorta of sacrificed animal (after 12 weeks of high fat diet, 1 animal): no abnormal change
HDL-C vs vehicle control (all treatment groups): significantly high
number of animals of Grade I (high dose group): Grade I: 0 animal;
number of animals of Grade II (high dose group): Grade II: 5 animals;
number of animals of Grade III (high dose group): Grade III: 0 animal;
number of animals of Grade IV (high dose group): Grade IV: 3 animals.
atherosclerosis Grade (high dose group): II (grade II was between 25% to 50%); also recorded: IV (Grade IV was greater than 75%)
TG content in liver vs vehicle control (low dose): significantly lower
liver cellular swelling vs vehicle control (low dose): same in low dose group and vehicle control
liver fat degeneration vs vehicle control (low dose): better
pathological change of aorta vs vehicle control (low dose): no significant improvement
number of animals of Grade I (low dose group): Grade I: 9 animals;
number of animals of Grade II (low dose group): Grade II: 1 animal;
number of animals of Grade III (low dose group): Grade III: 0 animal;
number of animals of Grade IV (low dose group): Grade IV: 2 animals.
LDL-C content in liver vs vehicle control (medium dose): significantly lower
TC content in liver vs vehicle control (medium dose): significantly lower
TG content in liver vs vehicle control (medium dose): significantly lower
area of atherosclerosis vs vehicle control (medium dose): significant less
liver cellular swelling and fat degeneration vs vehicle control (medium dose): better
number of animals of Grade I (medium dose group): Grade I: 6 animals;
number of animals of Grade II (medium dose group): Grade II: 2 animals;
number of animals of Grade III (medium dose group): Grade III: 0 animal;
number of animals of Grade IV (medium dose group): Grade IV: 0 animal.
atherosclerosis Grade (medium dose group): I (grade I was less than 25%); also recorded: II (grade II was between 25% to 50%)
pathological change of aorta vs vehicle control (medium dose, endothelium swelling, smooth muscle migrating, foam cell formation): better
atherosclerosis change in Arteria carotis (rabbit, in vivo): no atherosclerosis change found
calcification, pathological examination (rabbit, in vivo): no calcification found
high density lipoprotein cholesterin (HDL-C) Increase (High dose (n = 8)): 3.81 ± 2.025 mmol/L
high density lipoprotein cholesterin (HDL-C) Increase (%) (High dose (n = 8)): 322.1%
high density lipoprotein cholesterin (HDL-C) Wk 0 (High dose (n = 8)): 1.183 ± 0.149 mmol/L
high density lipoprotein cholesterin (HDL-C) Wk 19 (High dose (n = 8)): 4.993 ± 2.018 mmol/L
ligh density lipoprotein cholesterin (LDL-C) Increase (High dose (n = 8)): 13.18 ± 4.053 mmol/L
ligh density lipoprotein cholesterin (LDL-C) Increase (%) (High dose (n = 8)): 1432.6%
ligh density lipoprotein cholesterin (LDL-C) Wk0 (High dose (n = 8)): 0.92 ± 0.324 mmol/L
ligh density lipoprotein cholesterin (LDL-C) Wk 19 (High dose (n = 8)): 14.1 ± 4.188 mmol/L
total cholesterol (TC) Increase (High dose (n = 8)): 10.90 ± 2.66 mmol/L
total cholesterol (TC) Increase (%) (High dose (n = 8)): 685.5%
total cholesterol (TC) Wk0 (High dose (n = 8)): 1.59 ± 0.48 mmol/L
total cholesterol (TC) Wk 19 (High dose (n = 8)): 12.49 ± 2.81 mmol/L
high density lipoprotein cholesterin (HDL-C) Increase (Low dose (n = 12)): 3.04 ± 2.019 mmol/L
high density lipoprotein cholesterin (HDL-C) Increase (%) (Low dose (n = 12)): 431.2%
high density lipoprotein cholesterin (HDL-C) Wk 0 (Low dose (n = 12)): 0.705 ± 0.246 mmol/L
high density lipoprotein cholesterin (HDL-C) Wk 19 (Low dose (n = 12)): 3.744 ± 2.14 mmol/L
ligh density lipoprotein cholesterin (LDL-C) Increase (Low dose (n = 12)): 6.472 ± 4.468 mmol/L
ligh density lipoprotein cholesterin (LDL-C) Increase (%) (Low dose (n = 12)): 783.5%
ligh density lipoprotein cholesterin (LDL-C) Wk0 (Low dose (n = 12)): 0.826 ± 0.279 mmol/L
ligh density lipoprotein cholesterin (LDL-C) Wk 19 (Low dose (n = 12)): 7.298 ± 4.60 mmol/L
total cholesterol (TC) Increase (Low dose (n = 12)): 8.01 ± 4.87 mmol/L
total cholesterol (TC) Increase (%) (Low dose (n = 12)): 755.6%
total cholesterol (TC) Wk0 (Low dose (n = 12)): 1.06 ± 0.27 mmol/L
total cholesterol (TC) Wk 19 (Low dose (n = 12)): 9.07 ± 4.92 mmol/L
total triglyceride (TG) Increase (Low dose (n = 12)): 0.482 ± 0.839 mmol/L
total triglyceride (TG) Increase (%) (Low dose (n = 12)): 61.3%
total triglyceride (TG) Wk 0 (Low dose (n = 12)): 0.786 ± 0.229 mmol/L
total triglyceride (TG) Wk 19 (Low dose (n = 12)): 1.267 ± 0.772 mmol/L
high density lipoprotein cholesterin (HDL-C) Increase (Medium dose (n = 9)): 3.674 ± 2.413 mmol/L
high density lipoprotein cholesterin (HDL-C) Increase (%) (Medium dose (n = 9)): 548.4%
high density lipoprotein cholesterin (HDL-C) Wk 0 (Medium dose (n = 9)): 0.67 ± 0.207 mmol/L
high density lipoprotein cholesterin (HDL-C) Wk 19 (Medium dose (n = 9)): 4.343 ± 2.439 mmol/L
ligh density lipoprotein cholesterin (LDL-C) Increase (Medium dose (n = 9)): 5.297 ± 4.373 mmol/L
ligh density lipoprotein cholesterin (LDL-C) Increase (%) (Medium dose (n = 9)): 499.7%
ligh density lipoprotein cholesterin (LDL-C) Wk0 (Medium dose (n = 9)): 1.06 ± 0.298 mmol/L
ligh density lipoprotein cholesterin (LDL-C) Wk 19 (Medium dose (n = 9)): 6.357 ± 4.475 mmol/L
total cholesterol (TC) Increase (Medium dose (n = 9)): 8.505 ± 5.37 mmol/L
total cholesterol (TC) Increase (%) (Medium dose (n = 9)): 453.0%
total cholesterol (TC) Wk0 (Medium dose (n = 9)): 1.77 ± 0.783 mmol/L
total cholesterol (TC) Wk 19 (Medium dose (n = 9)): 10.28 ± 5.82 mmol/L
total triglyceride (TG) Increase (Medium dose (n = 9)): 1.488 ± 0.988 mmol/L
total triglyceride (TG) Increase (%) (Medium dose (n = 9)): 226.8%
total triglyceride (TG) Wk 0 (Medium dose (n = 9)): 0.656 ± 0.191 mmol/L
total triglyceride (TG) Wk 19 (Medium dose (n = 9)): 2.144 ± 1.043 mmol/L
blood lipid parameters (test article given along with high fat diet): no significant decrease in blood lipid parameters
liver index (treatment group vs vehicle): lower in treatment group, but there's no statistical difference found
lipid content in aorta vs vehicle control (treatment groups): lower in treatment groups than that in vehicle control but there was no statistical significance

From patent publication US20170266266A1, “Functions of 55 Newfound Proteins and Their Medicinal Application in the Treatment and Prevention of Disease” (priority 2012, published 2017)
